Measurements published in patent US20030139443A1, “Use of tachykinin antagonists, including NK-1 receptor antagonists, to modify unwanted behavior in dogs, cats and horses” (priority 2001, published 2003).

Assays:
Format in all cases: in vivo, dog
[1] = system: Adult dogs with spontaneous anxiety to isolation and/or unfamiliar humans; experiment: Example 1: anxiety behaviors of dogs during 15-minute separation phase, compound of Formula 1 vs. placebo, double-blind crossover; conditions: for Hyperactivity Mean, Geometric Mean Time / Vocalization Mean, Geometric Mean Time: 0.1 mg/kg SC once daily, Separation Phase, vs. placebo
Protocol: To evaluate the anxiolytic effects of a compound of Formula 1 vs. placebo after seven and twenty-one days of parenteral dosing at 0.1 mg/kg SID, the following procedure was followed.
Adult dogs with spontaneous anxiety to isolation and/or unfamiliar humans were treated for twenty-one consecutive days with the compound of Formula 1 or a placebo control. Dogs were tested after seven and twenty-one days of dosing. “Day 0” was used to identify the initial day of dosing. The study was conducted using a double-blind crossover design. Treatment periods were 21 days in duration, with a 28 day washout period between treatments. Dogs were randomly assigned to treatment groups such that those receiving compound at the first replicate received placebo on the second replicate. The placebo treatments served as the negative control.
All study participants were blinded to treatment groups. The compound of Formula 1 was administered at a dose of 0.1 mg/kg. The volume of vehicle control used for the placebo treatments was equivalent to the calculated volume of test compound that would have been administered had the animal been receiving drug. All test articles were administered by subcutaneous injection once daily.
On the day of testing, each dog was placed in a cage in an isolated room for 15 minutes. A hidden observer timed any anxious behavior. Animals were tested on dosing day 6 and day 20, starting 2 hours after the dose of the day.
Abnormal anxiety behaviors were studied. Observations were made on two different anxiety behaviors during a 15-minute separation phase. These behaviors are vocalization (barking, crying, growling) and hyperactivity (jumping, pacing, circling).

[2] = system: dogs, anxiety associated with separation and with novel sight and sound stimuli; experiment: Example 2: canine anxiety model, separation phase and stimulation phase, various dosages of compound of Formula 1
Protocol: The present invention also concerns a method for testing compounds for anxiolytic effect in dogs. The model is designed to induce separation anxiety as well as anxiety due to novel visual and auditory stimuli. To determine whether a test compound has an anxiolytic effect in dogs, separation anxiety and anxiety associated with novel sight and sound stimuli are measured both with and without administration of the test compound. In one preferred embodiment, observations are made on five different anxiety behaviors during a 15-minute separation phase and a 15-minute stimulation phase. These anxiety behaviors are vocalization (barking, crying, growling); hyperactivity (jumping, pacing, circling); destruction (chewing, pawing, digging); salivation; and tremor. […] In addition to direct observation, dogs are videotaped during testing for documentation of behaviors. In one preferred embodiment, a dog is removed from a group pen and placed in an isolation cage. A tester, positioned behind a screen out of view, starts a timer for 15 minutes and a video recorder. […] At the end of the separation phase, the timer is re-set to 15 minutes and a child-size doll mounted on a remote controlled car is driven around the pen continuously. After 10 minutes, the doll and car are driven behind the screen and a child's fazer gun with a variety of sounds is continually activated for 5 minutes. At the end of the stimulation phase, the accumulated time for each behavior is recorded and the video recorder stopped. The dog is removed from the isolation cage and returned to the group pen. Preferably, a complete cross-over study design with test compound and placebo is used. Each treatment period is 21 days in length. Study “day 0” is used to designate the initial day of dosing. Anxiety testing is conducted on study days 6 and 20 within each period. Animals are allocated to treatment group, sequence, pen and evaluation order using a randomization plan. Dogs remain within the same sequence during progression of the cross-over phases of the study so that all possible treatment orders are evenly represented. Preferably, “day 0” is staggered such that 3-6 dogs are evaluated per day. Treatment administration is adjusted on testing days such that each animal is tested at the predicted Cmax for the test compound. Anxiety testing is preferably conducted between 11 AM and 4 PM to account for time-of-day variations in behavior. Animals are fed at the conclusion of testing. A three-week washout is observed between periods. Various dosages of the compound of Formula 1 were tested to determine an optimal dose. Anxiety associated with separation and with novel sight and sound stimuli was measured. Observations are made on two different anxiety behaviors during a 15-minute separation phase and a 15-minute stimulation phase. These behaviors are vocalization (barking, crying, growling) and hyperactivity (jumping, pacing, circling). […] In addition to direct observation, dogs are videotaped during testing for documentation of behaviors. The dog is removed from a group pen and placed in an isolation cage in an adjacent room. The tester, positioned behind a screen out of view, starts a timer for 15 minutes and the video recorder. […] At the end of the separation phase, the timer is re-set to 15 minutes and a child-size doll mounted on a remote controlled car is driven around the pen continuously. After 10 minutes, the doll and car are driven behind the screen and a child's fazer gun with a variety of sounds is continually activated for 5 minutes. At the end of the stimulation phase, the accumulated time for each behavior is recorded and the video recorder stopped. The dog is removed from the isolation cage and returned to the group pen.

[3] = system: Adult dogs, separation behavior; experiment: Example 3: behavior scores in dogs after ten consecutive oral doses of compound of Formula 2 vs. placebo, cross-over; conditions: 5 mg/kg oral BID, 10 doses
Protocol: Adult dogs received ten consecutive oral doses of a compound of Formula 2 at 5 mg/kg BID or placebo in a cross-over design and effects on behavior were determined beginning one-hour post-dose.
Appropriate amounts of the compound of Formula 2 were weighed and placed in capsules. Capsules were back-filled with dextrose.
Capsules were administered by placing them in the back of the throat and allowing the dogs to swallow. On the day of behavior testing, dogs were fasting at dosing.
Dogs were divided equally into two treatment groups. Treatment Group 1 received 10 consecutive oral doses of the compound of Formula 2 BID at 5 mg/kg and Treatment Group 2 received 10 consecutive oral dextrose placebos BID. At the conclusion of the first half of the study, the protocol was repeated and dogs in Treatment Group 1 received 10 consecutive oral dextrose placebos BID and dogs in Treatment Group 2 received 10 consecutive oral doses of the compound of Formula 2 BID at 5 mg/kg.
Dogs began compound dosing at 1830 and continued for 10 consecutive BID doses. The final dose (dose #10) occurred the morning of testing, one hour prior to the start. Dogs were tested in three 15-minute testing phases in which behavior was scored every 5 minutes. Dogs were videotaped during the testing period.

[4] = 0.03 mg/kg, Separation, Day 6, vs. Day −1
[5] = 0.03 mg/kg, Separation, Day 20, vs. Day −1
[6] = 0.03 mg/kg, Stimulation, Day 6, vs. Day −1
[7] = 0.03 mg/kg, Stimulation, Day 20, vs. Day −1
[8] = 0.1 mg/kg, Separation Phase, Day 6, vs. placebo
[9] = 0.1 mg/kg, Separation Phase, Day 20, vs. placebo
[10] = 0.1 mg/kg, Separation, Day 6, vs. Day −1
[11] = 0.1 mg/kg, Separation, Day 20, vs. Day −1
[12] = 0.1 mg/kg, Stimulation Phase, Day 6, vs. placebo
[13] = 0.1 mg/kg, Stimulation Phase, Day 20, vs. placebo
[14] = 0.1 mg/kg, Stimulation, Day 6, vs. Day −1
[15] = 0.1 mg/kg, Stimulation, Day 20, vs. Day −1
[16] = 0.3 mg/kg, Separation, Day 6, vs. Day −1
[17] = 0.3 mg/kg, Separation, Day 20, vs. Day −1
[18] = 0.3 mg/kg, Stimulation, Day 6, vs. Day −1
[19] = 0.3 mg/kg, Stimulation, Day 20, vs. Day −1
[20] = 1 mg/kg, Separation Phase, Day 6, vs. placebo
[21] = 1 mg/kg, Separation Phase, Day 20, vs. placebo
[22] = 1 mg/kg, Stimulation Phase, Day 6, vs. placebo
[23] = 1 mg/kg, Stimulation Phase, Day 20, vs. placebo

SMILES: COc1ccc(C(C)(C)C)cc1CN[C@H]1C2CCN(CC2)[C@H]1C(c1ccccc1)c1ccccc1 [Compound of Formula 1, (2S.3S) (2-Benzhydryl-1-aza-bicyclo[2.2.2]oct-3-yl)-(5-tert-butyl-2-methoxy-benzyl)-amine]
- effectiveness at treating vocalization and hyperactivity resulting from separation ([1]; 0.1 mg/kg SC, compared with placebo): more effective than placebo
- Hyperactivity Mean, Geometric Mean Time [2, 4]: 19.4 s
- Vocalization Mean, Geometric Mean Time [2, 4]: 10.6 s
- Hyperactivity Mean, Geometric Mean Time [2, 5]: 20.1 s
- Vocalization Mean, Geometric Mean Time [2, 5]: 12.1 s
- Hyperactivity Mean, Geometric Mean Time [2, 6]: 38.6 s
- Vocalization Mean, Geometric Mean Time [2, 6]: 24.5 s
- Hyperactivity Mean, Geometric Mean Time [2, 7]: 28.2 s
- Vocalization Mean, Geometric Mean Time [2, 7]: 35.6 s
- Hyperactivity Mean, Geometric Mean Time [2, 8]: 24.1 s
- Vocalization Mean, Geometric Mean Time [2, 8]: 29.0 s
- Hyperactivity Mean, Geometric Mean Time [2, 9]: 19.1 s
- Vocalization Mean, Geometric Mean Time [2, 9]: 25.5 s
- Hyperactivity Mean, Geometric Mean Time [2, 10]: 24.7 s
- Vocalization Mean, Geometric Mean Time [2, 10]: 15.5 s
- Hyperactivity Mean, Geometric Mean Time [2, 11]: 14.8 s
- Vocalization Mean, Geometric Mean Time [2, 11]: 9.1 s
- Hyperactivity Mean, Geometric Mean Time [2, 12]: 46.7 s
- Vocalization Mean, Geometric Mean Time [2, 12]: 35.3 s
- Hyperactivity Mean, Geometric Mean Time [2, 13]: 51.2 s
- Vocalization Mean, Geometric Mean Time [2, 13]: 26.4 s
- Hyperactivity Mean, Geometric Mean Time [2, 14]: 48.8 s
- Vocalization Mean, Geometric Mean Time [2, 14]: 36.8 s
- Hyperactivity Mean, Geometric Mean Time [2, 15]: 28.4 s
- Vocalization Mean, Geometric Mean Time [2, 15]: 24.7 s
- Hyperactivity Mean, Geometric Mean Time [2, 16]: 49.7 s
- Vocalization Mean, Geometric Mean Time [2, 16]: 20.9 s
- Hyperactivity Mean, Geometric Mean Time [2, 17]: 39.1 s
- Vocalization Mean, Geometric Mean Time [2, 17]: 18.2 s
- Hyperactivity Mean, Geometric Mean Time [2, 18]: 43.1 s
- Vocalization Mean, Geometric Mean Time [2, 18]: 15.9 s
- Hyperactivity Mean, Geometric Mean Time [2, 19]: 41.9 s
- Vocalization Mean, Geometric Mean Time [2, 19]: 19.2 s
- Hyperactivity Mean, Geometric Mean Time [2, 20]: 23.3 s
- Vocalization Mean, Geometric Mean Time [2, 20]: 5.8 s
- Hyperactivity Mean, Geometric Mean Time [2, 21]: 16.8 s
- Vocalization Mean, Geometric Mean Time [2, 21]: 6.9 s
- Hyperactivity Mean, Geometric Mean Time [2, 22]: 22.7 s
- Vocalization Mean, Geometric Mean Time [2, 22]: 6.5 s
- Hyperactivity Mean, Geometric Mean Time [2, 23]: 36.0 s
- Vocalization Mean, Geometric Mean Time [2, 23]: 7.4 s
- most efficacious dosage in dogs among those dosages tested ([2]; SC, dosages tested 0.03, 0.1, 0.3, 1 mg/kg): 0.1 mg/kg

SMILES: COc1ccc(OC(F)(F)F)cc1CN[C@H]1CCCN[C@H]1c1ccccc1 [Compound of Formula 2]
- Hyperactivity Mean, Geometric Mean Time ([1]; Day 6): 24.1 s
- Vocalization Mean, Geometric Mean Time ([1]; Day 6): 29.0 s
- Hyperactivity Mean, Geometric Mean Time ([1]; Day 20): 19.1 s
- Vocalization Mean, Geometric Mean Time ([1]; Day 20): 25.5 s
- Separation Hyperactivity 0-15 min, behavior score as estimated duration of time ([3]; Dog ID 70954): 2 s
- Separation Vocalization 0-15 min, behavior score as estimated duration of time ([3]; Dog ID 70954): 0 s
- Separation Hyperactivity 0-15 min, behavior score as estimated duration of time ([3]; Dog ID 215155): 2 s
- Separation Vocalization 0-15 min, behavior score as estimated duration of time ([3]; Dog ID 215155): 12 s
- Separation Hyperactivity 0-15 min, behavior score as estimated duration of time ([3]; Dog ID 219622): 30 s
- Separation Vocalization 0-15 min, behavior score as estimated duration of time ([3]; Dog ID 219622): 22 s
- Separation Hyperactivity 0-15 min, behavior score as estimated duration of time ([3]; Dog ID 227641): 2 s
- Separation Vocalization 0-15 min, behavior score as estimated duration of time ([3]; Dog ID 227641): 2 s
- Separation Hyperactivity 0-15 min, behavior score as estimated duration of time ([3]; Dog ID 234923): 2 s
- Separation Vocalization 0-15 min, behavior score as estimated duration of time ([3]; Dog ID 234923): 0 s
- Separation Hyperactivity 0-15 min, behavior score as estimated duration of time ([3]; Dog ID 240893): 6 s
- Separation Vocalization 0-15 min, behavior score as estimated duration of time ([3]; Dog ID 240893): 0 s
- Separation Hyperactivity 0-15 min, behavior score as estimated duration of time ([3]; Dog ID 2943450): 18 s
- Separation Vocalization 0-15 min, behavior score as estimated duration of time ([3]; Dog ID 2943450): 30 s
- Separation Hyperactivity 0-15 min, behavior score as estimated duration of time ([3]; Dog ID HIHMFU): 12 s
- Separation Vocalization 0-15 min, behavior score as estimated duration of time ([3]; Dog ID HIHMFU): 0 s
- Separation Hyperactivity 0-15 min, behavior score as estimated duration of time ([3]; Mean of 8 dogs): 9.25 s
- Separation Vocalization 0-15 min, behavior score as estimated duration of time ([3]; Mean of 8 dogs): 8.25 s
